Active and inactive are the calls of the source. The rule behind the calls is not given here.
Legend:
Type in all cases: cell-based
[1] = molecular target: T1, von Hippel-Lindau disease tumor suppressor/Casein kinase I isoform delta (Homo sapiens, UniProt P48730+P40337); test: PROTAC activity at VHL/full length N-terminal Nano-luc fused CK1 delta (unknown origin) transfected in HEK293T cells incubated for 2 hrs followed by substrate addition by NanoBRET target engagement assay
[2] = molecular target: von Hippel-Lindau disease tumor suppressor/Casein kinase I isoform alpha (Homo sapiens) (UniProt P48729+P40337); test: PROTAC activity at VHL/CK1 alpha in HEK293 cells assessed as induction of degradation of CK1 alpha by measuring maximum efficacy at 5 to 10 uM measured after 6 hrs by Western blot analysis relative to control; details: dose 5-10 µM
Chain of von Hippel-Lindau disease tumor suppressor/Casein kinase I isoform alpha (Homo sapiens) (P40337 whole entry, looked up, canonical isoform): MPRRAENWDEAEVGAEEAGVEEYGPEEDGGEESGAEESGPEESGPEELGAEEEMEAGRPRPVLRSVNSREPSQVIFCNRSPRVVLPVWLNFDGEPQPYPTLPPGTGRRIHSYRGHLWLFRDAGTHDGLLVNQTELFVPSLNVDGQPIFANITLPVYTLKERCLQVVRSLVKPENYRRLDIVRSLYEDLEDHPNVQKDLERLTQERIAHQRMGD
Chain of von Hippel-Lindau disease tumor suppressor/Casein kinase I isoform alpha (Homo sapiens) (P48729 whole entry, looked up, canonical isoform): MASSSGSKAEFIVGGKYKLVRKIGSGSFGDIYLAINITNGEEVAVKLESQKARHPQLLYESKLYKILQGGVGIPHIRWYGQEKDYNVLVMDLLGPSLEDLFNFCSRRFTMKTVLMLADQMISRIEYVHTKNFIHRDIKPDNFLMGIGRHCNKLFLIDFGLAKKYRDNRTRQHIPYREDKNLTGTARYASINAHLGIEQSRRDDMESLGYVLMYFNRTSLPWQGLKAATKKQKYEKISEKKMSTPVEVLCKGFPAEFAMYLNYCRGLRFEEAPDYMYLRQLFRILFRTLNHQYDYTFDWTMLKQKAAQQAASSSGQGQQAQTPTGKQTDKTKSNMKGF

[3] = molecular target: von Hippel-Lindau disease tumor suppressor/Casein kinase I isoform epsilon (Homo sapiens) (UniProt P49674+P40337); test: PROTAC activity at VHL/CK1 epsilon in HEK293 cells assessed as induction of degradation of CK1 epsilon at 3 uM measured after 1 hrs by Western blot analysis
Chain of von Hippel-Lindau disease tumor suppressor/Casein kinase I isoform epsilon (Homo sapiens) (P40337 whole entry, looked up, the tested form may be a part, canonical isoform): as the sequence (P40337 whole entry, looked up, canonical isoform) above
Chain of von Hippel-Lindau disease tumor suppressor/Casein kinase I isoform epsilon (Homo sapiens) (P49674 whole entry, looked up, the tested form may be a part, canonical isoform): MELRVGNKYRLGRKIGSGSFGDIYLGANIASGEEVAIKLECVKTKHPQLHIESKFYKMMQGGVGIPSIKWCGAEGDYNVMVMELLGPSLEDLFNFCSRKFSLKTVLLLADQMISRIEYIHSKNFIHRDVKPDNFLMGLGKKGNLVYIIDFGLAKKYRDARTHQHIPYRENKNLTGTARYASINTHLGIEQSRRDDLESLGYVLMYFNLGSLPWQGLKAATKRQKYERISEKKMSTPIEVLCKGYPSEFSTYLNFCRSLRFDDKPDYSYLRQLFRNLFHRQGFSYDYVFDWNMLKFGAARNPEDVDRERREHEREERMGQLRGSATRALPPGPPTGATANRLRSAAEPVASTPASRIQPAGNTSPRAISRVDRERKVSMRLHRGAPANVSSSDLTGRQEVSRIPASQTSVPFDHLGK

[4] = molecular target: T1, von Hippel-Lindau disease tumor suppressor/Casein kinase I isoform delta; test: PROTAC activity at VHL/HiBit fused CK1 delta in human MV4-11 cells assessed as fold change at 0.63 uM measured after 6 hrs by Nano-Glo HiBit assay
[5] = molecular target: T1, von Hippel-Lindau disease tumor suppressor/Casein kinase I isoform delta; test: PROTAC activity at VHL/HiBit fused CK1 delta in human MV4-11 cells assessed as fold change at 0.63 uM measured after 6 hrs in presence of 1 uM of MU1742 by Nano-Glo HiBit assay

T1 sequence (P40337 whole entry, looked up, the tested form may be a part, canonical isoform): as the sequence (P40337 whole entry, looked up, canonical isoform) above
T1 sequence (P48730 whole entry, looked up, the tested form may be a part, canonical isoform): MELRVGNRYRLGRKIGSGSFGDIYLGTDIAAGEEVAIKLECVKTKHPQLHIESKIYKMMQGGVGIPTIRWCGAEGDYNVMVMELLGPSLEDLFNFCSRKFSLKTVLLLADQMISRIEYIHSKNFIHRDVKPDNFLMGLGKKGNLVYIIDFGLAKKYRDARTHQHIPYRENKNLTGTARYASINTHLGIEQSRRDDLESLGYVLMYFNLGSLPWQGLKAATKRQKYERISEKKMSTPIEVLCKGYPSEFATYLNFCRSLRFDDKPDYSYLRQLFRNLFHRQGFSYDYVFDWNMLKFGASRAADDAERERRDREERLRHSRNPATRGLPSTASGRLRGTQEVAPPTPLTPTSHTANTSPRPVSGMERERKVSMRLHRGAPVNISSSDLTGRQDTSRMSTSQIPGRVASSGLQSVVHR

Emax [1]: 3.2%
Emax [2]: > 50%
Activity [3]: Active
fold change (FC) [4]: 0.49
fold change (FC) [5]: 1.19
SMILES: Cc1ncsc1-c1ccc(CNC(=O)[C@H]2C[C@H](O)CN2C(=O)[C@H](NC(=O)CCCCCCC(=O)N2CCC(F)(Cn3cnc(-c4ccc(F)cn4)c3-c3ccnc4[nH]ccc34)CC2)C(C)(C)C)cc1
